Experimental data published in US20100279990A1, “ANTIPROLIFERATIVE COMPOUNDS, COMPOSITIONS AND METHODS OF USE” (RAMOT AT TEL-AVIV UNIVERSITY LTD., priority 2006, published 2010).

Tests used:
Format in all cases: cell-based, human
OVXF 1619L = assay: Monolayer Assay, PI: OVXF 1619L (Ovarian Cancer)
Source text: (§1) This example illustrates cell proliferation data in the form of IC50, IC70 and IC90 values obtained by exposure of human cancer cell-lines to compound (Ia). […].

PRXF LNCAP = assay: Monolayer Assay, PI: PRXF LNCAP (Prostate)
Source text: as §1

PXF 1752L = assay: Monolayer Assay, PI: PXF 1752L (Pleuramesothelioma)
Source text: as §1

What does the source list for CN[C@H]1CC[C@@H](c2ccc(Cl)c(Cl)c2)c2ccc(C#CCCCO)cc21 [compound (Ia), (1S-cis)-4-(3,4-dichlorophenyl)-7-(5-hydroxy-1-pentyn-1-yl)-1,2,3,4-tetrahydro-N-methyl-1-naphthalenamine hydroiodide]?
Test/Control (%) (OVXF 1619L; 2.3 μg/ml): 88%; Test/Control activity class (OVXF 1619L; 2.3 μg/ml): − (− (T/C = 50)); Test/Control (%) (OVXF 1619L; 7.5 μg/ml): 2%; Test/Control activity class (OVXF 1619L; 7.5 μg/ml): +++ (+++ (T/C < 10)); Test/Control (%) (OVXF 1619L; 23. μg/ml): 1%; Test/Control activity class (OVXF 1619L; 23. μg/ml): +++ (+++ (T/C < 10)); Test/Control (%) (OVXF 1619L; 75. μg/ml): 1%; Test/Control activity class (OVXF 1619L; 75. μg/ml): +++ (+++ (T/C < 10)); Test/Control (%) (OVXF 1619L; .75 μg/ml): 98%; Test/Control activity class (OVXF 1619L; .75 μg/ml): − (− (T/C = 50)); Test/Control (%) (PRXF LNCAP; 2.3 μg/ml): 56%; Test/Control activity class (PRXF LNCAP; 2.3 μg/ml): − (− (T/C = 50)); Test/Control (%) (PRXF LNCAP; 7.5 μg/ml): 4%; Test/Control activity class (PRXF LNCAP; 7.5 μg/ml): +++ (+++ (T/C < 10)); Test/Control (%) (PRXF LNCAP; 23. μg/ml): 3%; Test/Control activity class (PRXF LNCAP; 23. μg/ml): +++ (+++ (T/C < 10)); Test/Control (%) (PRXF LNCAP; 75. μg/ml): 3%; Test/Control activity class (PRXF LNCAP; 75. μg/ml): +++ (+++ (T/C < 10)); Test/Control (%) (PRXF LNCAP; .75 μg/ml): 78%; Test/Control activity class (PRXF LNCAP; .75 μg/ml): − (− (T/C = 50)); Test/Control (%) (PXF 1752L; 2.3 μg/ml): 81%; Test/Control activity class (PXF 1752L; 2.3 μg/ml): − (− (T/C = 50)); Test/Control (%) (PXF 1752L; 7.5 μg/ml): 27%; Test/Control activity class (PXF 1752L; 7.5 μg/ml): ++ (++ (10 <= T/C < 30)); Test/Control (%) (PXF 1752L; 23. μg/ml): 5%; Test/Control activity class (PXF 1752L; 23. μg/ml): +++ (+++ (T/C < 10)); Test/Control (%) (PXF 1752L; 75. μg/ml): 3%; Test/Control activity class (PXF 1752L; 75. μg/ml): +++ (+++ (T/C < 10)); Test/Control (%) (PXF 1752L; .75 μg/ml): 99%; Test/Control activity class (PXF 1752L; .75 μg/ml): − (− (T/C = 50))
